Source: PubChem BioAssay (NCI)
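All cell lines were grown in 96-well plates and treated with compound for 48 hours. TGI is the concentration that stops growth completely.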

Legend:
Assay in all cases: NCI anticancer screen, dose series, 48 h
SNB-75 CNS = test system: SNB-75 CNS
OVCAR-4 ovarian = test system: OVCAR-4 ovarian
RXF 393 renal = test system: RXF 393 renal
XF 498 CNS = test system: XF 498 CNS
SR leukemia = test system: SR leukemia
LXFL 529 NSCLC = test system: LXFL 529 NSCLC
HOP-62 NSCLC = test system: HOP-62 NSCLC
SF-539 CNS = test system: SF-539 CNS
SW-620 colon = test system: SW-620 colon
MOLT-4 leukemia = test system: MOLT-4 leukemia
ACHN renal = test system: ACHN renal
LOX IMVI melanoma = test system: LOX IMVI melanoma
UO-31 renal = test system: UO-31 renal
DLD-1 colon = test system: DLD-1 colon
OVCAR-3 ovarian = test system: OVCAR-3 ovarian
OVCAR-5 ovarian = test system: OVCAR-5 ovarian
K-562 leukemia = test system: K-562 leukemia
CAKI-1 renal = test system: CAKI-1 renal
HCC-2998 colon = test system: HCC-2998 colon
UACC-62 melanoma = test system: UACC-62 melanoma
U251 CNS = test system: U251 CNS
SF-295 CNS = test system: SF-295 CNS
A549 NSCLC = test system: A549 NSCLC
HOP-18 NSCLC = test system: HOP-18 NSCLC
MALME-3M melanoma = test system: MALME-3M melanoma
COLO 205 colon = test system: COLO 205 colon
M19-MEL melanoma = test system: M19-MEL melanoma
DMS 273 small cell lung = test system: DMS 273 small cell lung
EKVX NSCLC = test system: EKVX NSCLC
KM20L2 colon = test system: KM20L2 colon
SK-MEL-2 melanoma = test system: SK-MEL-2 melanoma
SN12C renal = test system: SN12C renal
NCI-H226 lung = test system: NCI-H226 lung
HCT-116 colon = test system: HCT-116 colon
NCI-H522 lung = test system: NCI-H522 lung
TK-10 renal = test system: TK-10 renal
M14 melanoma = test system: M14 melanoma
786-0 renal = test system: 786-0 renal
HCT-15 colon = test system: HCT-15 colon
SF-268 CNS = test system: SF-268 CNS
IGROV1 ovarian = test system: IGROV1 ovarian
SNB-19 CNS = test system: SNB-19 CNS
KM12 colon = test system: KM12 colon
DMS 114 small cell lung = test system: DMS 114 small cell lung
SK-MEL-28 melanoma = test system: SK-MEL-28 melanoma
RPMI-8226 leukemia = test system: RPMI-8226 leukemia
UACC-257 melanoma = test system: UACC-257 melanoma
OVCAR-8 ovarian = test system: OVCAR-8 ovarian
SK-MEL-5 melanoma = test system: SK-MEL-5 melanoma
NCI-H23 lung = test system: NCI-H23 lung
NCI-H460 lung = test system: NCI-H460 lung
SNB-78 CNS = test system: SNB-78 CNS
SK-OV-3 ovarian = test system: SK-OV-3 ovarian
HL-60(TB) leukemia = test system: HL-60(TB) leukemia
CCRF-CEM leukemia = test system: CCRF-CEM leukemia
A498 renal = test system: A498 renal
HOP-92 NSCLC = test system: HOP-92 NSCLC
HT29 colon = test system: HT29 colon

Measured: TGI

O=C(c1ccccc1)c1nc2ccc(Cl)cc2c2c1Cc1ccccc1-2
> 100 µM: SNB-75 CNS | OVCAR-4 ovarian | RXF 393 renal | XF 498 CNS | SR leukemia | LXFL 529 NSCLC | HOP-62 NSCLC | SF-539 CNS | SW-620 colon | MOLT-4 leukemia | ACHN renal | LOX IMVI melanoma | UO-31 renal | DLD-1 colon | OVCAR-3 ovarian | OVCAR-5 ovarian | K-562 leukemia | CAKI-1 renal | HCC-2998 colon | UACC-62 melanoma | U251 CNS | SF-295 CNS | A549 NSCLC | HOP-18 NSCLC | MALME-3M melanoma | COLO 205 colon | M19-MEL melanoma | DMS 273 small cell lung | EKVX NSCLC | KM20L2 colon | SK-MEL-2 melanoma | SN12C renal | NCI-H226 lung | HCT-116 colon | NCI-H522 lung | TK-10 renal | M14 melanoma | 786-0 renal | HCT-15 colon | SF-268 CNS | IGROV1 ovarian | SNB-19 CNS | KM12 colon | DMS 114 small cell lung | SK-MEL-28 melanoma | RPMI-8226 leukemia | UACC-257 melanoma | OVCAR-8 ovarian | SK-MEL-5 melanoma | NCI-H23 lung

CC1=Nn2c(nnc2-c2ccc(Cl)cc2)NC(C)(C)C1
> 100 µM: OVCAR-4 ovarian | NCI-H460 lung | XF 498 CNS | LXFL 529 NSCLC | HOP-62 NSCLC | SF-539 CNS | SNB-78 CNS | SW-620 colon | MOLT-4 leukemia | ACHN renal | LOX IMVI melanoma | UO-31 renal | DLD-1 colon | OVCAR-3 ovarian | OVCAR-5 ovarian | K-562 leukemia | CAKI-1 renal | HCC-2998 colon | UACC-62 melanoma | U251 CNS | SF-295 CNS | SK-OV-3 ovarian | A549 NSCLC | HL-60(TB) leukemia | CCRF-CEM leukemia | HOP-18 NSCLC | MALME-3M melanoma | COLO 205 colon | M19-MEL melanoma | DMS 273 small cell lung | EKVX NSCLC | KM20L2 colon | SK-MEL-2 melanoma | A498 renal | NCI-H226 lung | NCI-H522 lung | TK-10 renal | M14 melanoma | 786-0 renal | HCT-15 colon | SF-268 CNS | IGROV1 ovarian | HOP-92 NSCLC | SNB-19 CNS | KM12 colon | DMS 114 small cell lung | SK-MEL-28 melanoma | RPMI-8226 leukemia | UACC-257 melanoma | SK-MEL-5 melanoma | NCI-H23 lung | HT29 colon
